According to patent US20130065818A1, “Arylamide Compounds And Compositions And Uses Thereof” (POLYMEDIX, priority 2006, published 2013):
≈ marks a conversion by molar mass, not a printed value. Where “and” joins values, the source holds several entries; their conditions need not be identical. Identical values can stand only once. Like-named read-outs stand apart in the source and are kept apart here.

Assays:
Format in all cases: cell-based
[1] = system: Staphylococcus aureus fluoroquinolone-susceptible; test: MIC, 25 ocular isolates, broth microdilution (Example 8)
Procedure: • Mueller-Hinton Broth in tubes was inoculated with 25 ocular isolates of Staphylococcus aureus fluoroquinolone-susceptible, Staphylococcus aureus fluoroquinolone-resistant, Staphylococcus epidermidis (Coagulase-negative Staphylococcus) fluoroquinolone-susceptible, Staphylococcus epidermidis (Coagulase-negative Staphylococcus) fluoroquinolone-resistant, Pseudomonas aeruginosa and Serratia marcescens, plus two controls (Staphylococcus aureus and E. coli) and incubated at 37° C. overnight on a shaker set at 250 rpm.
(§1) On the day of testing, a 640 μg/ml (1280 μg/ml for Serratia marcescens and Pseudomonas aeruginosa) concentration was prepared from a 1% stock solution in 0.01% acetic acid, 0.2% BSA in polypropylene tubes.
(§2) Serial doubling dilutions in 0.01% acetic acid, 0.2% BSA in 96 well polypropylene plates, which are used as reservoirs for the inoculation of the test plates, were carried out to obtain serial dilutions of test agents at 10 times the required test concentrations: 640, 320, 160, 80, 40, 20, 10, 5, 2.5, 1.25, and 0.625 μg/ml (1280, 640, 320, 160, 80, 40, 20, 10, 5, 2.5, and 1.25 μg/ml for Serratia marcescens and Pseudomonas aeruginosa).
(§3) Ten μl of diluted 10×test agents was added to each well of one row of the 96 well polypropylene plates from column 2 to column 12 (column 1 is a control for bacteria alone, with no peptide). Test agent concentrations in columns 2-12 were as follows: 64, 32, 16, 8, 4, 2, 1, 0.5, 0.25, 0.125, and 0.0625 μg/ml (128, 64, 32, 16, 8, 4, 2, 1, 0.5, 0.25, and 0.125 μg/ml for Serratia marcescens and Pseudomonas aeruginosa). The same peptide was in each of the 8 rows. One plate contained dilutions of one test agent and 8 bacterial isolates.
On the day of testing, the overnight bacterial broth cultures of Staphylococcus aureus fluoroquinolone-susceptible, Staphylococcus aureus fluoroquinolone-resistant, Staphylococcus epidermidis (Coagulase-negative Staphylococcus) fluoroquinolone-susceptible, Staphylococcus epidermidis (Coagulase-negative Staphylococcus) fluoroquinolone-resistant, Serratia marcescens, and Pseudomonas aeruginosa, plus two controls (Staphylococcus aureus and E. coli) were diluted in 5 ml of trypticase soy broth to yield turbidity equal to a 0.5 McFarland standard. The final inoculum for MIC testing for Staphylococcus aureus fluoroquinolone-susceptible, Staphylococcus aureus fluoroquinolone-resistant, Staphylococcus epidermidis (Coagulase-negative Staphylococcus) fluoroquinolone-susceptible, Staphylococcus epidermidis (Coagulase-negative Staphylococcus) fluoroquinolone-resistant, Serratia marcescens, and Pseudomonas aeruginosa was achieved by placing 0.05 ml of the turbidity adjusted sample to 5 ml of Mueller-Hinton broth.
(§4) Ninety μl of the bacterial suspensions was dispensed in each well from column 1 to column 12. Each bacterial isolate was placed in one row of a 96 well polypropylene plate containing the test agents. The plates were placed on shaker at 15 minutes at room temperature, and then incubated at 37° C. overnight. MICs were determined visually as the lowest concentration of drug that inhibits visible bacterial growth.

P. aeruginosa ATCC 10145 = test: MIC, laboratory strains (Example 8)
Haemophilus influenzae = test: MIC, 25 ocular isolates, broth microdilution (Example 8)
Procedure: HTM (Haemophilus Test Medium) in tubes was inoculated with 25 ocular isolates of Haemophilus influenzae plus two controls (Staphylococcus aureus and E. coli) and incubated at 37° C. overnight. Additionally, Mueller-Hinton Broth in tubes was inoculated with two controls (Staphylococcus aureus and E. coli) and incubated at 37° C. overnight on a shaker set at 250 rpm.
as §1, §2, §3
On the day of testing, the overnight bacterial broth cultures of Haemophilus species was diluted in 5 ml of trypticase soy broth to yield turbidity equal to a 0.5 McFarland standard. The final inoculum for MIC testing for Haemophilus species was achieved by placing 0.1 ml of the turbidity adjusted sample to 5 ml of HTM medium.
as §4

[2] = Haemophilus influenzae, n=25 isolates, >64 replaced with 128

## N=C(N)NCCCCC(=O)Nc1cc(C(F)(F)F)cc(NC(=O)c2cc(C(=O)Nc3cc(C(F)(F)F)cc(NC(=O)CCCCNC(=N)N)c3O[C@@H]3CCNC3)ncn2)c1O[C@@H]1CCNC1 [Oligomer 4]
[1]; 25 isolates sorted ascending, Row 1-25, in µg/mL
  MIC, sorted list for MIC50 and MIC90 Determinations (QSSA-A): 0.250 and 0.500
[1]; 25 isolates, Row 13
  MIC50: 0.25 µg/mL (≈ 0.267 µM)
[1]; 25 isolates, Row 22
  MIC90: 0.5 µg/mL (≈ 0.534 µM)
[1]; 25 isolates, Summary of Results
  Range of MICs: 0.125 to 0.5 µg/mL
[1]; Staphylococcus aureus, 25 ocular isolates, read-out: Median MIC
  MIC: ≤ 0.25 µg/mL
[1]; Staphylococcus aureus, isolate 1—E402, read-out: MIC
  MIC: 0.25 µg/mL (≈ 0.267 µM)
[1]; Staphylococcus aureus, isolate 2—E1512, read-out: MIC
  MIC: 0.25 µg/mL (≈ 0.267 µM)
[1]; Staphylococcus aureus, isolate 3—E253, read-out: MIC
  MIC: 0.25 µg/mL (≈ 0.267 µM)
[1]; Staphylococcus aureus, isolate 4—K1518, read-out: MIC
  MIC: 0.25 µg/mL (≈ 0.267 µM)
[1]; Staphylococcus aureus, isolate 5—K1525, read-out: MIC
  MIC: 0.125 µg/mL (≈ 0.133 µM)
[1]; Staphylococcus aureus, isolate 6—K1663, read-out: MIC
  MIC: 0.5 µg/mL (≈ 0.534 µM)
[1]; Staphylococcus aureus, isolate 7—K1648, read-out: MIC
  MIC: 0.25 µg/mL (≈ 0.267 µM)
[1]; Staphylococcus aureus, isolate 8—K1646, read-out: MIC
  MIC: 0.25 µg/mL (≈ 0.267 µM)
[1]; Staphylococcus aureus, isolate 9—K1642, read-out: MIC
  MIC: 0.5 µg/mL (≈ 0.534 µM)
[1]; Staphylococcus aureus, isolate 10—K1638, read-out: MIC
  MIC: 0.5 µg/mL (≈ 0.534 µM)
[1]; Staphylococcus aureus, isolate 11—K1628, read-out: MIC
  MIC: 0.25 µg/mL (≈ 0.267 µM)
[1]; Staphylococcus aureus, isolate 12—K1618, read-out: MIC
  MIC: 0.5 µg/mL (≈ 0.534 µM)
[1]; Staphylococcus aureus, isolate 13—K1617, read-out: MIC
  MIC: 0.25 µg/mL (≈ 0.267 µM)
[1]; Staphylococcus aureus, isolate 14—K1611, read-out: MIC
  MIC: 0.25 µg/mL (≈ 0.267 µM)
[1]; Staphylococcus aureus, isolate 15—K1607, read-out: MIC
  MIC: 0.25 µg/mL (≈ 0.267 µM)
[1]; Staphylococcus aureus, isolate 16—K1600, read-out: MIC
  MIC: 0.25 µg/mL (≈ 0.267 µM)
[1]; Staphylococcus aureus, isolate 17—K1591, read-out: MIC
  MIC: 0.25 µg/mL (≈ 0.267 µM)
[1]; Staphylococcus aureus, isolate 18—K1585, read-out: MIC
  MIC: 0.25 µg/mL (≈ 0.267 µM)
[1]; Staphylococcus aureus, isolate 19—K1583, read-out: MIC
  MIC: 0.25 µg/mL (≈ 0.267 µM)
[1]; Staphylococcus aureus, isolate 20—K1574, read-out: MIC
  MIC: 0.25 µg/mL (≈ 0.267 µM)
[1]; Staphylococcus aureus, isolate 21—K1566, read-out: MIC
  MIC: 0.25 µg/mL (≈ 0.267 µM)
[1]; Staphylococcus aureus, isolate 22—K1551, read-out: MIC
  MIC: 0.25 µg/mL (≈ 0.267 µM)
[1]; Staphylococcus aureus, isolate 23—K1545, read-out: MIC
  MIC: 0.25 µg/mL (≈ 0.267 µM)
[1]; Staphylococcus aureus, isolate 24—K1540, read-out: MIC
  MIC: 0.25 µg/mL (≈ 0.267 µM)
[1]; Staphylococcus aureus, isolate 25—K1530, read-out: MIC
  MIC: 0.25 µg/mL (≈ 0.267 µM)
[1]; Staphylococcus aureus, n=25 per group, read-out: Median MIC
  MIC: 0.25 µg/mL (≈ 0.267 µM)
[1]; Staphylococcus aureus, 25 isolates, Summary of Results, read-out: MIC50
  MIC50: 0.25 µg/mL (≈ 0.267 µM)
[1]; Staphylococcus aureus, 25 isolates, Summary of Results, read-out: MIC90
  MIC90: 0.25 µg/mL (≈ 0.267 µM)
[1]; Staphylococcus aureus, 25 isolates, Summary of Results, read-out: Median MIC
  MIC: 0.25 µg/mL (≈ 0.267 µM)
[1]; n=25 per group
  MIC50: 0.25 µg/mL (≈ 0.267 µM)
  MIC90: 0.25 µg/mL (≈ 0.267 µM)
  Range of MICs: 0.125 to 0.5 µg/mL
P. aeruginosa ATCC 10145
  MIC: 12.5 µg/mL (≈ 13.3 µM)
Haemophilus influenzae; Haemophilus influenzae, 25 ocular isolates, HTM medium, read-out: Median MIC
  MIC: 8 µg/mL (≈ 8.54 µM)
Haemophilus influenzae; Haemophilus influenzae, isolate 1 B1359, read-out: MIC
  MIC: 8 µg/mL (≈ 8.54 µM)
Haemophilus influenzae; Haemophilus influenzae, isolate 2 B1346, read-out: MIC
  MIC: 8 µg/mL (≈ 8.54 µM)
Haemophilus influenzae; Haemophilus influenzae, isolate 3 B1345, read-out: MIC
  MIC: 8 µg/mL (≈ 8.54 µM)
Haemophilus influenzae; Haemophilus influenzae, isolate 4 B1343, read-out: MIC
  MIC: 8 µg/mL (≈ 8.54 µM)
Haemophilus influenzae; Haemophilus influenzae, isolate 5 B1338, read-out: MIC
  MIC: 4 µg/mL (≈ 4.27 µM)
Haemophilus influenzae; Haemophilus influenzae, isolate 6 B1332, read-out: MIC
  MIC: 8 µg/mL (≈ 8.54 µM)
Haemophilus influenzae; Haemophilus influenzae, isolate 7 B1331, read-out: MIC
  MIC: 8 µg/mL (≈ 8.54 µM)
Haemophilus influenzae; Haemophilus influenzae, isolate 8 B1330, read-out: MIC
  MIC: 8 µg/mL (≈ 8.54 µM)
Haemophilus influenzae; Haemophilus influenzae, isolate 9 B1379, read-out: MIC
  MIC: 16 µg/mL (≈ 17.1 µM)
Haemophilus influenzae; Haemophilus influenzae, isolate 10 B1378, read-out: MIC
  MIC: 8 µg/mL (≈ 8.54 µM)
Haemophilus influenzae; Haemophilus influenzae, isolate 11 B1313, read-out: MIC
  MIC: 4 µg/mL (≈ 4.27 µM)
Haemophilus influenzae; Haemophilus influenzae, isolate 12 B1477, read-out: MIC
  MIC: 8 µg/mL (≈ 8.54 µM)
Haemophilus influenzae; Haemophilus influenzae, isolate 13 B1286, read-out: MIC
  MIC: 8 µg/mL (≈ 8.54 µM)
Haemophilus influenzae; Haemophilus influenzae, isolate 14 B1282, read-out: MIC
  MIC: 32 µg/mL (≈ 34.2 µM)
Haemophilus influenzae; Haemophilus influenzae, isolate 15 B1291, read-out: MIC
  MIC: 8 µg/mL (≈ 8.54 µM)
Haemophilus influenzae; Haemophilus influenzae, isolate 16 B1280, read-out: MIC
  MIC: 8 µg/mL (≈ 8.54 µM)
Haemophilus influenzae; Haemophilus influenzae, isolate 17 B1279, read-out: MIC
  MIC: 16 µg/mL (≈ 17.1 µM)
Haemophilus influenzae; Haemophilus influenzae, isolate 18 B1260, read-out: MIC
  MIC: 8 µg/mL (≈ 8.54 µM)
Haemophilus influenzae; Haemophilus influenzae, isolate 19 B1238, read-out: MIC
  MIC: 2 µg/mL (≈ 2.13 µM)
Haemophilus influenzae; Haemophilus influenzae, isolate 20 B1209, read-out: MIC
  MIC: 4 µg/mL (≈ 4.27 µM)
Haemophilus influenzae; Haemophilus influenzae, isolate 21 B1249, read-out: MIC
  MIC: 4 µg/mL (≈ 4.27 µM)
Haemophilus influenzae; Haemophilus influenzae, isolate 22 B1248, read-out: MIC
  MIC: 8 µg/mL (≈ 8.54 µM)
Haemophilus influenzae; Haemophilus influenzae, isolate 23 B1244, read-out: MIC
  MIC: 8 µg/mL (≈ 8.54 µM)
Haemophilus influenzae; Haemophilus influenzae, isolate 24 B1419, read-out: MIC
  MIC: 4 µg/mL (≈ 4.27 µM)
Haemophilus influenzae; Haemophilus influenzae, isolate 25 B1222, read-out: MIC
  MIC: 8 µg/mL (≈ 8.54 µM)
Haemophilus influenzae; [2]
  MIC50: 8 µg/mL (≈ 8.54 µM)
  MIC90: 8 µg/mL (≈ 8.54 µM)
Haemophilus influenzae; Haemophilus influenzae, n=25 isolates, >64 replaced with 128, read-out: Median MIC
  MIC: 8 µg/mL (≈ 8.54 µM)
Haemophilus influenzae; n=25 isolates, >64 replaced with 128
  Range of MICs: 2 to 32 µg/mL
